Experimental data as given in ChEMBL document CHEMBL6103627, “(±)-Feionemycin A and Chromonemycins A-D, Rearranged Aromatic Polyketides Uncovered by Type II Polyketide Gene Cluster Expression” (J Nat Prod, 2025).
Structures can show the parent of a compound that is named as a salt.

Key:
K562 = experiment: Antitumor activity against human K562 cells assessed as inhibition cell growth by MTT assay; format: functional, cell-based
MDA-MB-231 = experiment: Antitumor activity against human MDA-MB-231 cells assessed as inhibition of cell growth by SRB assay; format: functional, cell-based
[1] = Antitumor activity against human L02 cells assessed as inhibition of cell growth by SRB assay; format: toxicity, cell-based
NCI-H446 = experiment: Antitumor activity against human NCI-H446 cells assessed as inhibition of cell growth by SRB assay; format: functional, cell-based
[2] = Antitumor activity against human Cisplatin/etoposide-resistant NCI-H446/EP cells assessed as inhibition of cell growth by SRB assay; format: functional, cell-based
ASPC1 = experiment: Antitumor activity against human ASPC1 cells assessed as inhibition of cell growth by SRB assay; format: functional, cell-based
Bacillus cereus = experiment: Antimicrobial activity against Bacillus cereus ATCC 4342 assessed as inhibition of microbial growth incubated for 24 hrs by microdilution method; format: functional, organism-based
Staphylococcus aureus [3] = experiment: Antimicrobial activity against methicillin-resistant Staphylococcus aureus assessed as inhibition of microbial growth incubated for 24 hrs by microdilution method; format: functional, organism-based
Staphylococcus aureus [4] = experiment: Antimicrobial activity against Staphylococcus aureus ATCC 29213 assessed as inhibition of microbial growth incubated for 24 hrs by microdilution method; format: functional, organism-based

Row | SMILES | IC50 (K562) [µM] | IC50 (MDA-MB-231) [µM] | IC50 [1] [µM] | IC50 (NCI-H446) [µM] | IC50 [2] [µM] | IC50 (ASPC1) [µM] | Activity (Bacillus cereus) | Activity (Staphylococcus aureus [3]) | Activity (Staphylococcus aureus [4])
1 | Cc1cc(=O)c2c(C/C=C/[C@@H](O)Cc3cc(O)cc(=O)o3)cc(O)cc2o1 | > 50 | > 50 | > 50 | > 50 | > 50 | < 50 | – | – | –
2 | Cc1cc(=O)c2c3c(c(O)cc2o1)[C@](O)(Cc1cc(=O)cc(O)o1)C[C@@H](O)C3 | > 50 | > 50 | > 50 | > 50 | > 50 | > 50 | – | – | –
3 | CC1=CC(=O)c2c(O)cccc2[C@]12Oc1cc(O)cc(C)c1C2=O | > 50 | > 50 | > 50 | > 50 | > 50 | > 50 | Weak_effect | Weak_effect | Weak_effect
4 | COc1cccc2c1C(=O)c1c(O)c3c(c(O)c1C2=O)C[C@@](O)(C(=O)CO)C[C@@H]3O[C@H]1C[C@H](N)[C@H](O)[C@H](C)O1 [DOXORUBICIN HYDROCHLORIDE] | – | – | 0.33 | 0.8 | 11.2 | 5.91 | – | – | –
5 | CC1=CC(=O)c2c(O)cccc2[C@@]12Oc1cc(O)cc(C)c1C2=O | > 50 | > 50 | > 50 | 2.26 | < 50 | > 50 | Weak_effect | Weak_effect | Weak_effect
6 | Cc1cc(=O)c2c3c(c(O)cc2o1)/C(=C/c1cc(=O)cc(O)o1)C[C@@H](O)C3 | > 50 | > 50 | > 50 | > 50 | > 50 | > 50 | – | – | –
7 | Cc1cc(=O)c2c(CCCC(=O)Cc3cc(O)cc(=O)o3)cc(O)cc2o1 | > 50 | > 50 | < 50 | < 50 | > 50 | > 50 | Weak_effect | Weak_effect | Weak_effect
